Laboratory results reported in PMC2248166, “Quantitative peptide binding motifs for 19 human and mouse MHC class I molecules derived using positional scanning combinatorial peptide libraries” (Immunome Research, 2008).
Where a SMILES comes first, the peptide text is derived from it.

What follows are molecules tested against HLA A*3001 (Homo sapiens, UniProt P04439, D140H/D185E/E176W/F33S/G80R/H175R/K168Q/R138E/R41S) (assay: biochemical).
Type: binding

Sequence of HLA A*3001 (P04439 25-365 limits assumed, stated change not applied): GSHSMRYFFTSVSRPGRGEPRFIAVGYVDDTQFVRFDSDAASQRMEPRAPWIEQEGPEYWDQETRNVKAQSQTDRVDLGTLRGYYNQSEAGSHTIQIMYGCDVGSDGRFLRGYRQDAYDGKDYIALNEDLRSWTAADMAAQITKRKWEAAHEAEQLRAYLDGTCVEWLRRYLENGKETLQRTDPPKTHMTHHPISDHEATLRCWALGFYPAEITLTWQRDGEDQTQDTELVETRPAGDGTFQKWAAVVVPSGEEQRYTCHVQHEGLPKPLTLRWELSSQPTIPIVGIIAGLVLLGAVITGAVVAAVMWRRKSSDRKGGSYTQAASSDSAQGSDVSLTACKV

In order of rising IC50:
1. CC(C)[C@H](NC(=O)[C@H](Cc1c[nH]cn1)NC(=O)[C@@H](NC(=O)[C@H](CC(=O)O)NC(=O)[C@H](CCCCN)NC(=O)[C@H](CO)NC(=O)[C@@H](N)CCCNC(=N)N)[C@@H](C)O)C(=O)N[C@@H](Cc1ccccc1)C(=O)N[C@@H](C)C(=O)O [3102.0271] (H-RSKDTHVFA-OH)  0.019 nM
2. C[C@@H](O)[C@H](N)C(=O)N[C@H](C(=O)N[C@@H](CCCCN)C(=O)N[C@@H](CC(N)=O)C(=O)NCC(=O)N[C@@H](CCC(N)=O)C(=O)N1CCC[C@H]1C(=O)N[C@@H](CCCNC(=N)N)C(=O)N[C@@H](CCCCN)C(=O)O)[C@@H](C)O [3102.0252] (H-TTKNGQPRK-OH)  0.23 nM
3. CC(C)C[C@H](NC(=O)[C@H](CC(C)C)NC(=O)[C@H](Cc1ccc(O)cc1)NC(=O)[C@@H](NC(=O)[C@H](C)NC(=O)[C@H](CCCCN)NC(=O)[C@@H](NC(=O)[C@@H](N)C(C)C)C(C)C)[C@@H](C)O)C(=O)N[C@@H](CCCCN)C(=O)O [3102.0181] (H-VVKATYLLK-OH)  0.32 nM
4. CC[C@H](C)[C@H](NC(=O)[C@H](CO)NC(=O)[C@@H](NC(=O)[C@H](CCCCN)NC(=O)[C@H](CCCCN)NC(=O)[C@H](CCC(N)=O)NC(=O)[C@@H](N)CCCNC(=N)N)[C@@H](C)CC)C(=O)N[C@@H](CC(C)C)C(=O)N[C@H](C(=O)O)C(C)C [3102.0196] (H-RQKKISILV-OH)  0.36 nM
5. CC[C@H](C)[C@H](NC(=O)[C@@H](NC(=O)[C@H](Cc1ccccc1)NC(=O)[C@H](CCSC)NC(=O)[C@@H](NC(=O)[C@@H](N)CCCCN)C(C)C)C(C)C)C(=O)N[C@@H](CCCNC(=N)N)C(=O)N[C@@H](Cc1ccccc1)C(=O)N[C@@H](CCCCN)C(=O)O [3102.0133] (H-KVMFVIRFK-OH)  0.6 nM
6. CC[C@H](C)[C@H](NC(=O)[C@@H](NC(=O)[C@@H](N)CCCNC(=N)N)[C@@H](C)O)C(=O)N[C@@H](CS)C(=O)N[C@H](C(=O)N[C@@H](CC(C)C)C(=O)N1CCC[C@H]1C(=O)N[C@@H](Cc1ccc(O)cc1)C(=O)N[C@@H](CC(C)C)C(=O)O)[C@@H](C)O [3102.0170] (H-RTICTLPYL-OH)  0.74 nM
7. CSCC[C@H](N)C(=O)N[C@H](C(=O)N[C@@H](CCCNC(=N)N)C(=O)N[C@@H](CC(C)C)C(=O)N1CCC[C@H]1C(=O)N[C@@H](Cc1ccc(O)cc1)C(=O)N[C@@H](CCCCN)C(=O)N[C@@H](CC(=O)O)C(=O)N[C@@H](C)C(=O)O)C(C)C [3102.0149] (H-MVRLPYKDA-OH)  0.76 nM
8. CC[C@H](C)[C@H](NC(=O)[C@@H](NC(=O)[C@@H](NC(=O)[C@H](CC(=O)O)NC(=O)[C@H](CCCCN)NC(=O)[C@@H](NC(=O)[C@H](C)N)C(C)C)C(C)C)[C@@H](C)O)C(=O)N[C@H](C(=O)N[C@@H](CCCCN)C(=O)O)[C@@H](C)O [3102.0067] (H-AVKDVTITK-OH)  2.2 nM
9. CSCC[C@H](NC(=O)[C@H](CC(C)C)NC(=O)[C@H](CCCNC(=N)N)NC(=O)[C@H](C)NC(=O)[C@@H](N)CC(N)=O)C(=O)N[C@@H](CCCNC(=N)N)C(=O)N[C@@H](C)C(=O)N[C@@H](CC(C)C)C(=O)N[C@@H](CCCCN)C(=O)O [3102.0218] (H-NARLMRALK-OH)  2.2 nM
10. CC[C@H](C)[C@H](NC(=O)[C@H](Cc1ccc(O)cc1)NC(=O)[C@@H](NC(=O)[C@@H](N)CCCCN)C(C)C)C(=O)NCC(=O)N[C@@H](Cc1ccc(O)cc1)C(=O)N[C@@H](CS)C(=O)N[C@@H](CCSC)C(=O)N[C@@H](C)C(=O)O [3102.0272] (H-KVYIGYCMA-OH)  2.6 nM
11. N=C(N)NCCC[C@H](NC(=O)CNC(=O)[C@@H](N)CCCCN)C(=O)N[C@@H](CCCNC(=N)N)C(=O)N[C@@H](CCC(N)=O)C(=O)N[C@@H](Cc1ccc(O)cc1)C(=O)N[C@@H](Cc1ccccc1)C(=O)N[C@@H](Cc1ccc(O)cc1)C(=O)NCC(=O)O [3102.0035] (H-KGRRQYFYG-OH)  2.9 nM
12. C[C@H](NC(=O)[C@H](C)NC(=O)[C@H](CCCCN)NC(=O)CNC(=O)[C@@H](N)CCCCN)C(=O)N[C@@H](C)C(=O)N[C@@H](Cc1ccccc1)C(=O)N[C@@H](C)C(=O)N[C@@H](CCCCN)C(=O)O [3102.0176] (H-KGKAAAFAK-OH)  3.1 nM
13. CC[C@H](C)[C@H](NC(=O)[C@H](CC(C)C)NC(=O)[C@@H](NC(=O)[C@@H](NC(=O)[C@H](CCCNC(=N)N)NC(=O)[C@H](Cc1ccccc1)NC(=O)[C@@H](N)CCCNC(=N)N)[C@@H](C)O)C(C)C)C(=O)N[C@@H](CO)C(=O)N[C@@H](CCCCN)C(=O)O [3102.0004] (H-RFRTVLISK-OH)  4.6 nM
14. CC[C@H](C)[C@H](NC(=O)[C@H](CCC(N)=O)NC(=O)[C@@H](NC(=O)[C@@H](NC(=O)[C@H](C)NC(=O)[C@H](CCCCN)NC(=O)[C@@H](NC(=O)[C@@H](N)[C@@H](C)O)[C@@H](C)O)[C@@H](C)O)[C@@H](C)O)C(=O)N[C@@H](C)C(=O)O [3102.0270] (H-TTKATTQIA-OH)  6.5 nM
15. CC(C)C[C@H](NC(=O)[C@H](CCCNC(=N)N)NC(=O)[C@@H](NC(=O)[C@@H](N)CCCNC(=N)N)C(C)C)C(=O)N[C@@H](CCCNC(=N)N)C(=O)N[C@@H](Cc1ccc(O)cc1)C(=O)N[C@@H](CCCNC(=N)N)C(=O)N[C@@H](CO)C(=O)NCC(=O)O [3102.0082] (H-RVRLRYRSG-OH)  13 nM
16. CC(C)C[C@H](NC(=O)[C@H](CCC(N)=O)NC(=O)CNC(=O)[C@H](CC(=O)O)NC(=O)[C@H](CCCNC(=N)N)NC(=O)[C@@H](NC(=O)[C@@H](N)[C@@H](C)O)C(C)C)C(=O)N[C@@H](CCC(=O)O)C(=O)N[C@H](C(=O)O)C(C)C [3102.0228] (H-TVRDGQLEV-OH)  13 nM
17. CC[C@H](C)[C@H](NC(=O)[C@H](CC(=O)O)NC(=O)[C@H](CC(C)C)NC(=O)[C@H](Cc1ccccc1)NC(=O)[C@@H](N)CC(C)C)C(=O)N[C@@H](CCC(=O)O)C(=O)N[C@@H](CS)C(=O)N[C@@H](Cc1c[nH]cn1)C(=O)N[C@@H](Cc1ccccc1)C(=O)O [3102.0932] (H-LFLDIECHF-OH)  19 nM
18. CC[C@H](C)[C@H](NC(=O)[C@@H](NC(=O)[C@H](CO)NC(=O)[C@@H](N)CCSC)C(C)C)C(=O)N[C@@H](CO)C(=O)N[C@@H](CC(N)=O)C(=O)N1CCC[C@H]1C(=O)N[C@@H](CO)C(=O)N[C@@H](CCCCN)C(=O)O [3102.0255] (H-MSVISNPSK-OH)  20 nM
19. CC[C@H](C)[C@H](NC(=O)[C@H](C)NC(=O)[C@@H](N)CCCCN)C(=O)N[C@@H](CO)C(=O)N[C@@H](CC(N)=O)C(=O)N[C@@H](C)C(=O)N[C@@H](CCCNC(=N)N)C(=O)N[C@@H](CC(C)C)C(=O)N[C@@H](CCCCN)C(=O)O [3102.0204] (H-KAISNARLK-OH)  26 nM
20. CSCC[C@H](NC(=O)[C@H](CC(C)C)NC(=O)[C@@H](NC(=O)[C@@H](N)Cc1c[nH]cn1)C(C)C)C(=O)N[C@@H](Cc1c[nH]cn1)C(=O)N[C@@H](CO)C(=O)N1CCC[C@H]1C(=O)N[C@@H](CC(C)C)C(=O)N[C@H](C(=O)O)C(C)C [3102.0062] (H-HVLMHSPLV-OH)  30 nM
21. CSCC[C@H](NC(=O)[C@H](Cc1c[nH]cn1)NC(=O)[C@H](CC(N)=O)NC(=O)[C@H](CCCNC(=N)N)NC(=O)[C@H](Cc1ccccc1)NC(=O)[C@@H](N)CCCNC(=N)N)C(=O)N[C@@H](CS)C(=O)N[C@@H](CC(C)C)C(=O)N[C@H](C(=O)O)C(C)C [3102.0134] (H-RFRNHMCLV-OH)  31 nM
22. CC[C@H](C)[C@H](NC(=O)[C@@H](NC(=O)[C@H](CO)NC(=O)[C@H](CCCNC(=N)N)NC(=O)[C@H](CC(C)C)NC(=O)[C@H](CO)NC(=O)[C@@H](N)CCSC)[C@@H](C)O)C(=O)N[C@H](C(=O)N[C@@H](CCCCN)C(=O)O)[C@@H](C)CC [3102.0180] (H-MSLRSTIIK-OH)  37 nM
